The source of these data is patent US9155752B2, “Liver function-improving agent” (UENO FINE CHEMICALS INDUSTRY, LTD., priority 2012, dated 2015).

In assay [1] the test system is C57BL/6 male mice fed high fat diet. The assay can be described thus: Fat vacuoles in hepatocytes, HE-stained liver tissue (Test Example 2). It is filed as in vivo. Particulars: for Fat vacuole area, Significant difference: 1% level; for Fat vacuole area (Mean ± Standard error): 8 weeks. How it is done: The following test was carried out in the same manner as in Test Example 1 for (1) test animal, (2) diet, and (3) preparation of sample. The diet and the sample water (test substance aqueous solution or distilled water) listed in Table 1 were administered to mice in each group and the animals were fed for 8 weeks. After 8-week test feeding, pentobarbital of 100 mg/kg of body weight was intraperitoneally administered to mice, and the mice were euthanized, and then liver was excised. The liver tissue excised from mice was stained with hematoxylin-eosin (HE) and a specimen observation under a microscope was carried out. Moreover, the results of microscopic observation were analyzed by the following method and a significant difference was evaluated by the t-test. […] This photographing was performed for four mice per group to obtain 16 microscopic images in total per group. At first, stained parts such as cytoplasm and nucleus in hepatocytes were selected by the image analysis. Then fat vacuole parts were selected by color inversion and the number of pixels for the selected fat vacuole parts was considered as a fat vacuole area. In the analysis, Dynamic Cell Count software accompanying fluorescence microscope BZ-9000 was used.

Assay [2] has the same test system. Nature of the assay: Blood ketone bodies value after 8-week feeding (Test Example 1). It is filed as in vivo. Also noted: key to Blood ketone bodies value, Significant difference: *: a significant difference was observed at 1% level of significance relative to group 3. The following applies: for Blood ketone bodies value (Mean ± Standard error): 8 weeks. From the text: Eight-week-old C57BL/6 male mice (CLEA Japan, Inc.) were divided at random into groups (each group: four animals) and then used. As a normal diet, solid diet MF (lipid component 5.3%, manufactured by Oriental Yeast Co., Ltd.) was used. As a high-fat diet, solid diet High Fat Diet 32 (lipid component 32.0%, manufactured by CLEA Japan, Inc.) was used. As a sample water, 2.5% by weight of aqueous sucrose solution, 2.25% by weight of aqueous maltitol solution, and 4.5% by weight of aqueous maltitol solution obtained by respectively dissolving, as a test substance, sucrose (manufactured by Wako Pure Chemical Industries, Ltd.) and maltitol (Whole Crystalline Maltitol Ueno 60M, having maltitol purity of 90%, manufactured by Ueno Fine Chemicals Industry, Ltd.) in distilled water were used. Distilled water was used as a negative sample. The sample water was administered by making it available ad libitum and the amount of sample water intake was recorded. The dose of sucrose per day calculated from the concentration of the sample water and the water intake was 3 g per 1 kg of body weight. The dose of maltitol per day calculated in the same manner as above was 2.7 g per 1 kg of body weight in mice receiving 2.25% aqueous maltitol solution, and 4.5 g per 1 kg of body weight in mice receiving 4.5% aqueous maltitol solution. The diet and the sample water (test substance aqueous solution or distilled water) listed in Table 1 were administered to mice in each group, and the animals were fed for 8 weeks. After 8-week test feeding, pentobarbital of 0.5 mg/10 g of body weight was intraperitoneally administered to mice, and blood was collected from the tail vein under deep anesthesia. Further, by using Precision Xceed β-Ketone Measuring Electrode (manufactured by Abbott Japan Co., Ltd.), ketone bodies value in blood, which is an indicator of fat burning in the liver, was measured. A significant difference test by the t-test method was performed on blood AST values, blood ALT values, and blood ketone bodies values were evaluated by performing significant difference tests on these values via t-test.

[3] abbreviates: Group 4: high fat diet + 2.25% aqueous maltitol solution.
Setting [4] is: Group 5: high fat diet + 4.5% aqueous maltitol solution.
The mark [5] stands for this setting: Group 3: high fat diet + 2.5% aqueous sucrose solution.

On to `OC[C@@H](O)[C@@H](O[C@H]1O[C@H](CO)[C@@H](O)[C@H](O)[C@H]1O)[C@H](O)[C@@H](O)CO` [maltitol], for which the “Fat vacuole area, Significant difference” value was “significantly smaller and Yes” in assay [1] (Group 4 (2.25% maltitol solution) relative to group 2 (high fat diet + distilled water)); “significantly smaller and Yes” in assay [1] (Group 5 (4.5% maltitol solution) relative to group 2 (high fat diet + distilled water)). Also, the “Fat vacuoles in microscopic observation” value in assay [1] (setting [3]) and in assay [1] (setting [4]) was “few fat vacuoles were observed” in each case. Besides, the entries for the “Fat vacuole area (Mean ± Standard error)” value in assay [1] (setting [3]) and in assay [1] (setting [4]) were 256145 ± 29037 pixel and 264982 ± 16387 pixel, respectively. Moreover, the figures for the “Blood ketone bodies value, change in words” value in assay [2] (Group 4 (2.25% aqueous maltitol solution) in comparison with group 3 (sucrose)) and in assay [2] (Group 5 (4.5% aqueous maltitol solution) relative to group 3 (sucrose)) were “significant improvement effect” and “increased”, respectively. Moreover, in assay [2] (Group 4 (2.25% aqueous maltitol solution) relative to group 3 (sucrose), t-test), the “Blood ketone bodies value, Significant difference” value is reported as “*”. The results for the “Blood ketone bodies value (Mean ± Standard error)” value in assay [2] (setting [3]) and in assay [2] (setting [4]) were 0.20 ± 0.04 mmol/L and 0.18 ± 0.05 mmol/L, respectively.

With `OC[C@H]1O[C@@](CO)(O[C@H]2O[C@H](CO)[C@@H](O)[C@H](O)[C@H]2O)[C@@H](O)[C@@H]1O` [sucrose, reference compound], in assay [1] (Group 3 (2.5% sucrose solution) relative to group 2 (high fat diet + distilled water)), the “Fat vacuole area, Significant difference” value is “No”. Moreover, in assay [1] (setting [5]), the “Fat vacuoles in microscopic observation” value is “reduction of the fat vacuoles is limited” and the “Fat vacuole area (Mean ± Standard error)” value was found to be 306930 ± 28549 pixel. Further, in assay [2] (setting [5]), the “Blood ketone bodies value (Mean ± Standard error)” value is 0.08 ± 0.03 mmol/L.
